Reference: paper PMC3961306, “Comparison of the Cancer Gene Targeting and Biochemical Selectivities of All Targeted Kinase Inhibitors Approved for Clinical Use” (PLoS ONE, 2014)

Assays:
Experiment in all cases: Kinase profiling in a biochemical assay panel (mobility shift assays and ELISA), %-inhibition at 1 μM; selectivity entropy
[1] = biological target: panel of more than 300 wild-type and mutant kinases (313 kinase panel) (Homo sapiens, UniProt P05129); details: kinase PKCγ; 1 μM
[2] = biological target: T1, panel of more than 300 wild-type and mutant kinases (313 kinase panel) (Homo sapiens, UniProt Q12852); details: kinase DLK; compound at 1 μM
T1 sequence (Q12852 1-859): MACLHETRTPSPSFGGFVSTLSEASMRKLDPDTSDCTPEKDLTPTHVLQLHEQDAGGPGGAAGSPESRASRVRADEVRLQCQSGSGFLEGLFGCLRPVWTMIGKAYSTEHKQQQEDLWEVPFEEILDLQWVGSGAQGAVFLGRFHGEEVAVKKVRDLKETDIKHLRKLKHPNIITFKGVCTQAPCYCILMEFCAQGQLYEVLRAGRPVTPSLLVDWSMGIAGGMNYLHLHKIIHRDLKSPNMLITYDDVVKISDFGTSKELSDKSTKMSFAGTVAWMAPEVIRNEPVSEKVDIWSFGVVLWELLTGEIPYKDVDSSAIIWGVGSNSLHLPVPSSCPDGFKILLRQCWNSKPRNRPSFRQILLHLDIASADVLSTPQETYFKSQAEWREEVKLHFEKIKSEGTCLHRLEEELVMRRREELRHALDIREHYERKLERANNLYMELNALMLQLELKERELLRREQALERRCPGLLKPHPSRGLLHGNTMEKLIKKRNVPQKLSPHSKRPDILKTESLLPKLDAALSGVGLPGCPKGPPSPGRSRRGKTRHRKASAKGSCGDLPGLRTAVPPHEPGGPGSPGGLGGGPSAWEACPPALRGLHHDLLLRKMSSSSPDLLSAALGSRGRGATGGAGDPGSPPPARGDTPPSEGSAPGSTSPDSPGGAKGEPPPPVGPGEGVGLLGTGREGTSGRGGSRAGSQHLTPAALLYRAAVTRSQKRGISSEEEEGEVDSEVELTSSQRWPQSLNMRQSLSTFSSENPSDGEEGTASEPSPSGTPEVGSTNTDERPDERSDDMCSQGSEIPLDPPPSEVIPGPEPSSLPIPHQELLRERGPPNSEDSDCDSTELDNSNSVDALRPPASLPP

[3] = biological target: panel of more than 300 wild-type and mutant kinases (313 kinase panel) (Homo sapiens, UniProt P42336)
[4] = biological target: T2, panel of more than 300 wild-type and mutant kinases (313 kinase panel) (Homo sapiens, UniProt O15146); details: kinase MUSK; 1 μM
T2 sequence (O15146 24-869): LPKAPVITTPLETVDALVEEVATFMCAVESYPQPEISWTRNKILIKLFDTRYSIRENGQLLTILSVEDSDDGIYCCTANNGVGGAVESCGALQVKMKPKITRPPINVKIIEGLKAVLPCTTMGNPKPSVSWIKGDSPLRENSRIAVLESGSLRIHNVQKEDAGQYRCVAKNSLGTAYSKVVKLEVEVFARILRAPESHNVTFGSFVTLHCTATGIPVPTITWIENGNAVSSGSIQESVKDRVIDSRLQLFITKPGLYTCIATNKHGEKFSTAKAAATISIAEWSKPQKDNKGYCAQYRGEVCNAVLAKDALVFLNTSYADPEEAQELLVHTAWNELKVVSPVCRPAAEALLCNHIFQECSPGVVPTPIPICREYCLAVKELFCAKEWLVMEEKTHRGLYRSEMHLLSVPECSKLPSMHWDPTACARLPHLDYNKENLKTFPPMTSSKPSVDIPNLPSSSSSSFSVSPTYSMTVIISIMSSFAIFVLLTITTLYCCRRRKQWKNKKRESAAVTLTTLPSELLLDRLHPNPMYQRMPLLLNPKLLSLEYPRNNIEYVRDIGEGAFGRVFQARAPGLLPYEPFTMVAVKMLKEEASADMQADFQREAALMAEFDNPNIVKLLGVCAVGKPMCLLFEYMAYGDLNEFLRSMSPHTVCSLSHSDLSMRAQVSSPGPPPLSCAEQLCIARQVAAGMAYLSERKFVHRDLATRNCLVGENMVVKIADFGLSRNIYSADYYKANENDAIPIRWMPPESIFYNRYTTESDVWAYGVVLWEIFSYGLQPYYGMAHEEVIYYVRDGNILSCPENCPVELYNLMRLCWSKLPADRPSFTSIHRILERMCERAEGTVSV

[5] = biological target: T3, panel of more than 300 wild-type and mutant kinases (313 kinase panel) (Homo sapiens, UniProt Q96PN8); details: kinase TSSK3; compound at 1 μM
T3 sequence (Q96PN8 1-268): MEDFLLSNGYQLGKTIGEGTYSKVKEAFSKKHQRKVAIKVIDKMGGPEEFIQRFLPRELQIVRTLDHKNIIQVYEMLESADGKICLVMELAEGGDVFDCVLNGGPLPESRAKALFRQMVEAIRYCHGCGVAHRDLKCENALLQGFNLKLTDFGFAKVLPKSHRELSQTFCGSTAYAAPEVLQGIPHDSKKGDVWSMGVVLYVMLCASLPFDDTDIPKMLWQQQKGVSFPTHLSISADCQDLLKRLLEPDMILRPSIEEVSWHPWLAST

[6] = biological target: panel of more than 300 wild-type and mutant kinases (313 kinase panel) (Homo sapiens, UniProt O95819)
[7] = biological target: panel of more than 300 wild-type and mutant kinases (313 kinase panel) (Homo sapiens, UniProt Q02750); details: kinase MAP2K1; compound at 1 μM

Compound | %-inhibition of PKCγ [1] [%] | %-inhibition of DLK [2] [%] | %-inhibition of PIK3CA/PIK3R1 ([3]; kinase PIK3CA/PIK3R1, 1 μM) [%] | %-inhibition of MUSK [4] [%] | %-inhibition of TSSK3 [5] [%] | %-inhibition of HGK ([6]; kinase HGK, compound at 1 μM) [%] | %-inhibition of MAP2K1 [7] [%] | %-inhibition of PIK3CA/PIK3R1 ([3]; 1 µM) [%] | %-inhibition of HGK ([6]; 1 µM) [%]
CC(C)(C)c1nc(-c2cccc(NS(=O)(=O)c3c(F)cccc3F)c2F)c(-c2ccnc(N)n2)s1 [dabrafenib] | -0.381 | -10 | 4.42 | 16 | -8 | 7 | – | – | –
CCCS(=O)(=O)Nc1ccc(F)c(C(=O)c2c[nH]c3ncc(-c4ccc(Cl)cc4)cc23)c1F [vemurafenib] | -4.39 | 8 | 24 | -0.285 | -3.19 | 26 | 18 | – | –
CN(C)C/C=C/C(=O)Nc1cc2c(Nc3ccc(F)c(Cl)c3)ncnc2cc1O[C@H]1CCOC1 [afatinib] | 3 | – | – | – | – | – | – | – | –
Cc1nc(Nc2ncc(C(=O)Nc3c(C)cccc3Cl)s2)cc(N2CCN(CCO)CC2)n1 [dasatinib] | – | 20 | – | – | -2.69 | 78 | – | – | –
C[C@@H](Oc1cc(-c2cnn(C3CCNCC3)c2)cnc1N)c1c(Cl)ccc(F)c1Cl [crizotinib] | -0.662 | 86 | – | 99 | -0.601 | – | 0.819 | – | –
Cc1ccc(C(=O)Nc2ccc(CN3CCN(C)CC3)c(C(F)(F)F)c2)cc1C#Cc1cnc2cccnn12 [ponatinib] | -3 | 84 | 45 | 100 | -4.67 | 92 | – | – | –
O=S(=O)(c1cccc2cnccc12)N1CCCNCC1 [fasudil] | 10 | -11 | -7 | 2 | -6 | -1.82 | 5.3 | – | –
COc1cc(Nc2c(C#N)cnc3cc(OCCCN4CCN(C)CC4)c(OC)cc23)c(Cl)cc1Cl [bosutinib] | 12 | 77 | 37 | 58 | -2 | 100 | – | – | –
CO[C@H]1C[C@@H]2CC[C@@H](C)[C@@](O)(O2)C(=O)C(=O)N2CCCC[C@H]2C(=O)O[C@H]([C@H](C)C[C@@H]2CC[C@@H](OCCO)[C@H](OC)C2)CC(=O)[C@H](C)/C=C(\C)[C@@H](O)[C@@H](OC)C(=O)[C@H](C)C[C@H](C)/C=C/C=C/C=C/1C [everolimus] | -6.56 | -5 | 22 | -7 | -3 | 0.896 | 7.5 | – | –
Cc1ccc(Nc2nccc(N(C)c3ccc4c(C)n(C)nc4c3)n2)cc1S(N)(=O)=O [pazopanib] | 9 | 40 | 45 | 9 | 4.41 | 50 | 2.11 | – | –
CNC(=O)c1cc(Oc2ccc(NC(=O)Nc3ccc(Cl)c(C(F)(F)F)c3)c(F)c2)ccn1 [regorafenib] | -8 | -13 | 41 | 80 | -4.39 | 53 | -8.57 | – | –
CC(=O)Nc1cccc(-n2c(=O)n(C3CC3)c(=O)c3c(Nc4ccc(I)cc4F)n(C)c(=O)c(C)c32)c1 [trametinib] | 0.381 | -2.85 | 0.26 | -0.929 | -8 | -3.71 | 99 | – | –
CCN(CC)CCNC(=O)c1c(C)[nH]c(/C=C2\C(=O)Nc3ccc(F)cc32)c1C [sunitinib] | 17 | – | – | 99 | – | 96 | 89 | – | –
CO[C@H]1C[C@@H]2CC[C@@H](C)[C@@](O)(O2)C(=O)C(=O)N2CCCC[C@H]2C(=O)O[C@H]([C@H](C)C[C@@H]2CC[C@@H](OC(=O)C(C)(CO)CO)[C@H](OC)C2)CC(=O)[C@H](C)/C=C(\C)[C@@H](O)[C@@H](OC)C(=O)[C@H](C)C[C@H](C)/C=C/C=C/C=C/1C [temsirolimus] | -11 | -6 | 22 | -9 | -2.63 | -0.299 | 0.452 | – | –
CS(=O)(=O)CCNCc1ccc(-c2ccc3ncnc(Nc4ccc(OCc5cccc(F)c5)c(Cl)c4)c3c2)o1 [lapatinib] | -0.202 | -3.44 | – | 4.38 | 0.192 | – | 21 | -9 | 1
COc1cc2c(Nc3ccc(Br)cc3F)ncnc2cc1OCC1CCN(C)CC1 [vandetanib] | -5 | 20 | 23 | 42 | -2.54 | 69 | 10 | – | –
COc1cc2nccc(Oc3ccc(NC(=O)C4(C(=O)Nc5ccc(F)cc5)CC4)cc3)c2cc1OC [cabozantinib] | -4 | 36 | 48 | 95 | -1.06 | 21 | 82 | – | –
